“And” between values parts separate entries of the source, which are not always exact repeats. Equal values may be shown once.
System: Erwinia amylovora 385
Experiment: Reduction of the Erwinia amylovora population on apple blossom
Type: in vivo
Settings: 0.06% streptomycin; apple blossom cv. Gala; 10^6 bacteria/ml; sprayed one hour after inoculation; 6 days at 20 to 23° C.; tests 4 to 6
Procedure: 2. Testing the Reduction of the Erwinia amylovora Population on Apple Blossom
Test plants: Apple blossom cv. Gala
Apple blossom cv. Gala were used in the following tests. The trees had not been treated with plant protection compositions. The flowers were placed by the petiole into a 10% strength sucrose solution and incubated in a humid chamber. 24 flowers were employed per treatment and repletition, and the test was repeated in each case three times.
Pathogen: Erwinia amylovora 385 was grown on agar plates. The apple blossom was inoculated with a suspension of 10^6 bacteria/ml.
Plant Treatment Composition:
1 part by weight of a solid formulation comprising
63.75% by weight of calcium formate
18.75% by weight of citric acid
16.73% by weight of calcium chloride
0.77% by weight of wetting agent and anti-dust agent were dissolved in 50 parts by weight (P 2%) of tap water and the solution was used for the following treatment. The pH was 4.1.
To carry out the treatments, the blossom was sprayed with the respective solution one hour after the inoculation, the chamber was sealed, and the contents were incubated for 6 days at 20 to 23° C.
(1-3) Water as the control
(4-6) 0.06% streptomycin (for comparison)

For `[H]/N=C(/N)N[C@H]1[C@H](O)[C@@H](O)[C@H](O[C@@H]2O[C@@H](C)[C@](O)(C=O)[C@H]2O[C@@H]2O[C@@H](CO)[C@H](O)[C@@H](O)[C@@H]2NC)[C@@H](N/C(N)=N\[H])[C@@H]1O` [streptomycin], the Efficacy was 84.6% and 89.5% and 95.5%.

Source: US20110165267A1, “AGENTS FOR TREATING AND/OR AVOIDING FIRE BLIGHT” (LANXESS DISTRIBUTION GMBH, priority 2008, published 2011)
